Measurements taken from the NIST ThermoML archive (doi:10.1016/j.fluid.2017.08.005).
± gives the expanded uncertainty stated by the source.

Conditions: Liquid, Closed cell (Static) method

Structure (SMILES): FC(F)Cl [chlorodifluoromethane]
- vapor or sublimation pressure (273.15 K): 498 ± 3 kPa
- vapor or sublimation pressure (293.15 K): 911 ± 3 kPa
- vapor or sublimation pressure (313.15 K): 1529 ± 4 kPa
- vapor or sublimation pressure (333.15 K): 2426 ± 5 kPa
- vapor or sublimation pressure (353.15 K): 3664 ± 7 kPa

Structure (SMILES): C=C [ethene]
- vapor or sublimation pressure (273.15 K): 4094 ± 16 kPa

Structure (SMILES): O=C=O [carbon dioxide]
- vapor or sublimation pressure (273.15 K): 3487 ± 13 kPa
